The source made the active and inactive calls. The rule behind the calls is not given here.
Target: Eukaryotic translation initiation factor 4E (Mus musculus) + Eukaryotic translation initiation factor 4 gamma 1 (Homo sapiens) (UniProt P63073+Q04637)
Test: eIF4E–eIF4G protein interaction inhibitors, dose response, biochemical, TR-FRET (AID 855)
Details: eIF4E/eIF4G binding, TR-FRET 665/620 nm; for percent of control, lower = inhibition: at 64 µM (top of the series)

Eukaryotic translation initiation factor 4E (Mus musculus) + Eukaryotic translation initiation factor 4 gamma 1 (Homo sapiens), sequence (P63073 whole entry, looked up): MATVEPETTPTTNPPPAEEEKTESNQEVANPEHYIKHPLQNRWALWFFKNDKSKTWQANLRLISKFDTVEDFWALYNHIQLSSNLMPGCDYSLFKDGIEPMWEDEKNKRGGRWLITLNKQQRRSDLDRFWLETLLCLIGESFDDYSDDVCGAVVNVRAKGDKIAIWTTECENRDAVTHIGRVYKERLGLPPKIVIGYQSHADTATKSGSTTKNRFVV
Eukaryotic translation initiation factor 4E (Mus musculus) + Eukaryotic translation initiation factor 4 gamma 1 (Homo sapiens), sequence (Q04637 whole entry, looked up): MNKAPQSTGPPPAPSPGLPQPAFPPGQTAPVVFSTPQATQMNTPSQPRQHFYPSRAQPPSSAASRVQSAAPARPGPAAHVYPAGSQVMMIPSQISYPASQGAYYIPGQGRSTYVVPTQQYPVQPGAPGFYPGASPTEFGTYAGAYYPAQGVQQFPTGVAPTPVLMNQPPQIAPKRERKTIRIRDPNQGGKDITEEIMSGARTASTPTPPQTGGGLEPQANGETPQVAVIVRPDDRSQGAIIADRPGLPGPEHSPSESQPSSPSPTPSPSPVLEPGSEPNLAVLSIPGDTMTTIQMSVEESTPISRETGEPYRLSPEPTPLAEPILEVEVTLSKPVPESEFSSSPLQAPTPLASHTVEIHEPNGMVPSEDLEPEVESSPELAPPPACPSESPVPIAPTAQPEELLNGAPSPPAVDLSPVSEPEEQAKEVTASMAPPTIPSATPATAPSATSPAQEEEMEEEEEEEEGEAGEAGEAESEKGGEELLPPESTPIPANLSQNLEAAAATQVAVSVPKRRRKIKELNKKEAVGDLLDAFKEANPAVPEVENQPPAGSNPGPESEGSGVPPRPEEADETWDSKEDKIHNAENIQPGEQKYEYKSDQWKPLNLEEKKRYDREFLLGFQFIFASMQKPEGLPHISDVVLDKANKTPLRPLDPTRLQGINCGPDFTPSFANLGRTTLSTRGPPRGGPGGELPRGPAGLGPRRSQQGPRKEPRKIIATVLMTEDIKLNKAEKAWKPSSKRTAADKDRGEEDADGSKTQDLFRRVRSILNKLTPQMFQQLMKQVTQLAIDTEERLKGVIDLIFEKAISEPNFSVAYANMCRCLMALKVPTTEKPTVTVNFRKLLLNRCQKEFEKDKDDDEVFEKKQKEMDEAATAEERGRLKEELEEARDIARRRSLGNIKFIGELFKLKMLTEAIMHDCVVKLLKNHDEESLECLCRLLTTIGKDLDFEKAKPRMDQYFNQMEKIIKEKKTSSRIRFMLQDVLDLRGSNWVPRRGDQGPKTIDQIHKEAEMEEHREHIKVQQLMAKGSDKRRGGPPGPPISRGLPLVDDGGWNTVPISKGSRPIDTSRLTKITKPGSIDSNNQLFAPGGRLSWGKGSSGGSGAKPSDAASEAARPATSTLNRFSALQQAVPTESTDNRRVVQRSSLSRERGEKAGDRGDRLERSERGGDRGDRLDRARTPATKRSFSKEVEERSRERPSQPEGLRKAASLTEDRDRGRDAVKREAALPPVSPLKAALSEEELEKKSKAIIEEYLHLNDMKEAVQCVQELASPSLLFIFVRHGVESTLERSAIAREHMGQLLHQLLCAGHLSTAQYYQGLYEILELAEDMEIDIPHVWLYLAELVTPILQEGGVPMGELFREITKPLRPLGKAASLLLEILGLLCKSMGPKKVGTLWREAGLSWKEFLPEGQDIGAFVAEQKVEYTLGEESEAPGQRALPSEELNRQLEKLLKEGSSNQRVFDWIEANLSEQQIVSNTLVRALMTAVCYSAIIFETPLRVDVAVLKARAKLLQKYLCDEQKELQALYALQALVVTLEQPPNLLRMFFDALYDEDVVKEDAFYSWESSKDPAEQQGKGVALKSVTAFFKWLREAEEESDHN

Structure (SMILES)	percent of control, lower = inhibition	IC50
N#C/C(=C\c1sc(N2CCOCC2)nc1-c1ccccc1)C(=O)Nc1cccc2ccccc12	inactive	–
O=C(NC1CCCC1)c1cnc2n(c1=O)CCS2	inactive	–
O=C(N/N=C/c1ccccc1O)c1cc(=O)[nH]c2ccccc12	inactive	–
O=C(/N=C1\NC(=O)C(F)(C(F)(F)F)S1)NC1CCCCC1 (stereo not given)	inactive	–
CCC(C(=O)NC(C)CCc1ccco1)n1nc(C)n2c(cc3occc32)c1=O (stereo not given)	inactive	–
CN1CCCN(Cc2ccccc2C(F)(F)F)CC1	inactive	–
O=C(CSCC(=O)Nc1ccc2ccccc2c1)NCc1ccccc1	inactive	–
O=C(CCn1[nH]c(=O)c2ccccc2c1=O)NCCO	inactive	–
CCNC(=O)c1ccc(CSc2ccc(Cl)cc2)cc1	inactive	–
CCOC(=O)c1ccccc1NC(=O)Cn1cnc2c(nnn2-c2ccc(C)cc2)c1=O	inactive	–
CCN(CC)S(=O)(=O)c1ccc(Cl)c(C(=O)Oc2cccnc2)c1	inactive	–
CC(=O)Nc1ccnc(-c2cccnc2)n1	inactive	–
O=C(OCCN1C(=O)c2cccc3c(N4CCOCC4)ccc(c23)C1=O)c1cc(Cl)cc(Cl)c1	inactive	–
Cc1noc(C)c1CSc1nc2cc(S(=O)(=O)N3CCOCC3)ccc2o1	inactive	–
C=CCNC(=O)COc1cc(C)ccc1C	inactive	–
O=C(Nc1nnc(C23CC4CC(CC(C4)C2)C3)s1)c1ccc(N2C(=O)CCC2=O)cc1	inactive	–
CCOC(=O)C(C)n1ncn2cccc2c1=O (stereo not given)	inactive	–
COc1cc(CC(=O)Nc2ccc3c(c2)CCC3)cc(OC)c1OC	inactive	–
Cc1nn(CCC#N)c2c1P(=S)(N1CCCC1)OC(c1ccc(F)cc1)=N2 (stereo not given)	inactive	–
Cc1[nH]n(-c2ccccc2)c(=S)c1C=Nc1cccc([N+](=O)[O-])c1	inactive	–
CCn1c2ccccc2c2nc3cc(S(=O)(=O)N4CCOCC4)ccc3nc21	inactive	–
CCOC(=O)c1c(NC(=O)c2cc(-c3ccc(O)cc3)on2)sc(C(C)=O)c1C	inactive	–
COc1ccc(C(=O)Nc2ccc3oc(Cc4ccc(Cl)cc4)nc3c2)cc1OC	inactive	–
COc1c(Cl)cc(-c2noc(C)c2C(=O)NC(C)C)cc1Cl	inactive	–
CCN=C(N/N=C/c1ccc([N+](=O)[O-])cc1)SC	inactive	–
CC(=O)Nc1ccc(S(=O)(=O)NNC(=O)COc2cccc(C)c2)cc1	inactive	–
CCOc1ccc(-c2nc(=S)[nH][nH]2)cc1	inactive	–
CCn1c(C2CC(=O)N(Cc3ccccc3)C2)nc2ccccc21 (stereo not given)	inactive	–
Cc1cc(NC(=O)CSc2ccccc2)no1	inactive	–
O=C1CC(c2ccco2)CC(O)=C1C=Nc1cc(Cl)cc(Cl)c1 (stereo not given)	–	> 64 µM (inactive)
